Results taken from patent US9637592B2, “Vitamin functionalized gel-forming block copolymers for biomedical applications” (International Business Machines Corporation, priority 2013, dated 2017).

Legend:
P. aeruginosa = experiment: killing efficiency / MBC; format: cell-based, Pseudomonas aeruginosa; details: drug alone
Procedure: Procedure for hydrogels: E. coli, P. aeruginosa, S. aureus and C. albicans were obtained from ATCC and reconstituted from its lyophilized form according to the manufacturer's protocol. Bacterial samples were cultured in Tryptic Soy Broth (TSB) solution at 37° C. under constant shaking of 300 rpm. C. albicans was culture in yeast medium at room temperature under constant shaking of 70 rpm. Prior to treatment, the bacterial sample was first inoculated and cultured to enter into log growth phase. To prepare the antimicrobial hydrogels, cationic polymer was first dissolved in filtered HPLC water in a bio-hood. The resultant solution was then added to solid triblock copolymer for dissolution and left to stand 4 hours at room temperature for the formation of the hydrogels (Example 28 and Example 29). […]
[…] The concentration of bacterial solution was adjusted to give an initial optical density (O.D.) reading of approximately 0.07 at 600 nm wavelength on a microplate reader (TECAN, Switzerland), which corresponds to the concentration of McFarland 1 solution (3×10^8 CFU/mL) The bacterial solution was then diluted and an equal volume of bacterial suspension (3×10^5) was added into each well. […] The plates were incubated for 24 hours at 37° C. and the number of colony-forming units (CFU) was counted. […]

C. albicans = format: cell-based, Candida albicans; details: solution, 5.0 mg/L (5 ppm)
Procedure: A stock solution of cationic polymer VE/PrBr(1:15) (5 mg) in sterile HPLC grade water (10 ml) was prepared having a final concentration of 500 mg/L (500 ppm). A second stock solution of fluconazole (1 mg) in sterile HPLC grade water (100 ml) was prepared having a final concentration of 10 mg/L (10 ppm). […] Formulation (2) was obtained by combining 125 microliters each of the stock solutions of cationic polymer and fluconazole and diluting the resulting solution with 750 microliters of sterile HPLC grade water.

Substance	MBC against P. aeruginosa (P. aeruginosa) [µg/mL]	killing efficiency against C. albicans (C. albicans) [%]
Doxycycline [DXY]	20 to 30	
Fluconazole		93.53
